Holding throughout (format): cell-based
Assay [1] concerns the target Ba/F3-ERBB2-A775_G776insYVMA cells (Homo sapiens, UniProt P04626, DUP772-775, cells depend on it). Nature of the assay: Ba/F3 cell survival assay, ERBB2 A775_G776insYVMA. Particulars: without IL-3, without EGF, 48 h; read-out: BA/F3 (ERBB2 A775_G776 insYVMA) IC50. The method, then: (§1) 293T cells from ATCC were transfected with pBABEpuro expression constructs for mutant EGFR (V769_D770insASV, D770_N771insNPG, N771_P772insH, H773_V774insNPH, E746_A750del, L858R, D770_N771insSVD C797S, E746_A750del C797S, L858R C797S, L861Q) or mutant ERBB2 (A775_G776insYVMA) and pCL-Eco packaging vector using Fugene-6 transfection reagent from Promega. Plates were incubated at 37° C. for 48 h. Retrovirus was harvested by filtering the media supernatant through a 0.45 μm filter.
(§2) Ba/F3 cells purchased from DSMZ were grown in RPMI+10% FBS+10 ng/mL IL-3 and infected with filtered retroviral supernatant at a 1:2 dilution. Polybrene was added to a concentration of 8 μg/mL, plates were spun for 90 min, and incubated overnight at 37° C. 2 μg/mL puromycin was added to the infected cells 24 h after infection and cells were continually grown in the presence of puromycin and 10 ng/mL IL-3. Following stably expressing Ba/F3 cell lines were generated: Ba/F3-EGFR-V769_D770insASV, Ba/F3-EGFR-D770_N771insNPG, Ba/F3-EGFR-N771_P772insH, Ba/F3-EGFR-H773_V774insNPH, Ba/F3-EGFR-E746_A750del, Ba/F3-EGFR-L858R, Ba/F3-EGFR-D770_N771 insSVD C797S, Ba/F3-EGFR-E746_A750del C797S, Ba/F3-EGFR-L858R C797S, Ba/F3-EGFR L861Q and Ba/F3-ERBB2-A775_G776insYVMA (Ba/F3-vector-control).
(§3) For cell survival assays, Ba/F3 cells were grown to a density of 1-2 million cells per mL, spun down and resuspended in media without IL-3, and replated at a concentration 200,000-500,000 cells per mL. The cells ectopically expressing WT EGFR plated with 10 ng/mL Millipore Culture grade EGF and Ba/F3 cells containing mutant EGFR or Mutant ERBB2 were cultivated without EGF. The cells ectopically expressing pBABEpuro empty vector were plated with 10 ng/mL IL-3.
(§4) 2 days later, cells were plated in 50 μL in a 384 well plate at a concentration of 4000 cells per well for cells assayed in the absence of IL-3 and 2000 cells per well for cells assayed in the presence of IL-3. 100 nL of compound was added to each well using a 100 nL pin head, and plates were incubated at 37° C. for 48 h.
(§5) Cell viability was measured by adding 20 μL of Cell Titer-Glo Luminescent Cell Viability Reagent diluted 1:3 in PBS. Plates were sealed with Perkin Elmer Top-Seal, inverted several times to mix, and immediately centrifuged at 1000 rpm for 2 min. Plates were incubated in low light conditions for 8-10 min and luminescence was measured.

The target of assay [2] is Ba/F3-EGFR-E746_A750del C797S cells (Homo sapiens, UniProt P00533, DEL746-750/C797S, cells depend on it). In words: Ba/F3 cell survival assay, EGFR E746_A750del C797S. The note with it: without IL-3, without EGF, 48 h; read-out: BA/F3 (EGFR E746_A750del C797S) IC50. The procedure:
as §1, §2, §3, §4, §5

Assay [3] addresses Ba/F3-EGFR-D770_N771 insSVD C797S cells (Homo sapiens, UniProt P00533, DUP768-770/C797S, cells depend on it). In words: Ba/F3 cell survival assay, EGFR D770_N771insSVD C797S. Particulars: without IL-3, without EGF, 48 h; read-out: BA/F3 (EGFR 0770_N771 insSVD C797S) IC50. The procedure: as §1, §2, §3, §4, §5
For assay [4], the target named is Ba/F3-EGFR-L858R cells (Homo sapiens, UniProt P00533, L858R, cells depend on it). In words: Ba/F3 cell survival assay, EGFR L858R. The note with it: without IL-3, without EGF, 48 h; read-out: BA/F3 (EGFR L858R) IC50. The procedure: as §1, §2, §3, §4, §5
Assay [5] relates to HCC-827 cells (EGFRex19del). Nature of the assay: HCC-827 proliferation assay (Cell Titer Glo). Particulars: Homo sapiens, HCC827, 72 h. The procedure:
Cellular Data Description (HCC-827 Cells, EGFRex19del)
(§6) HCC-827 cells were purchased from ATCC. 400 HCC-829 cells per well were seeded in growth medium (RPM11640, 10% FCS) in a 384-well plate (CORNING #3571). Seed reference plate for time zero determination on the same day. All plates were incubated overnight at 37° C. After 24 hours, test compound were added in 7-step dilution using HP Compound printer and incubated at 37° C. for 72 h. After 3 days, 30 μL/well CTG solution (Promega Cell Titer Glo solution; catalog # G755B and G756B) were added to each well, incubated for 30 minutes and the plate were read on PheraStar. Proliferation is calculated after subtracting time zero luminescence values from day 4 values and comparing to untreated wells.
The IC50 values were determined using the four parameter fit.
On the technique in general: In ATP-based viability assays light output follows the ATP content of the culture.

The target of assay [6] is Ba/F3-EGFR L861Q cells (Homo sapiens, UniProt P00533, L861Q, cells depend on it). Nature of the assay: Ba/F3 cell survival assay, EGFR L861Q. The note with it: without IL-3, without EGF, 48 h; read-out: BA/F3 (EGFR L861Q) IC50. The procedure:
as §1, §2, §3, §4, §5

The test system of assay [7] is PC9 cells (EGFRex19del). In words: PC9 proliferation assay (Cell Titer Glo). The note with it: Homo sapiens, PC-9, 72 h. The procedure: Cellular Data Description (PC9 Cells, EGFRex19del)
as §6, with “PC9” for “HCC-827”, “PC9” for “HCC-829”, “(DMEM,” for “(RPM11640,”, “wells. The IC50 values were determined using the four parameter fit.” for “wells.”

For assay [8], the target named is Ba/F3-EGFR-E746_A750del cells (Homo sapiens, UniProt P00533, DEL746-750, cells depend on it). In words: Ba/F3 cell survival assay, EGFR E746_A750del. Particulars: without IL-3, without EGF, 48 h; read-out: BA/F3 (EGFR E746_A750del) IC50. The method, then:
as §1, §2, §3, §4, §5

Each structure is given as a SMILES string.

Sequence of Ba/F3-EGFR-E746_A750del C797S cells (P00533 with tags, fused parts or gaps DEL746-750/C797S): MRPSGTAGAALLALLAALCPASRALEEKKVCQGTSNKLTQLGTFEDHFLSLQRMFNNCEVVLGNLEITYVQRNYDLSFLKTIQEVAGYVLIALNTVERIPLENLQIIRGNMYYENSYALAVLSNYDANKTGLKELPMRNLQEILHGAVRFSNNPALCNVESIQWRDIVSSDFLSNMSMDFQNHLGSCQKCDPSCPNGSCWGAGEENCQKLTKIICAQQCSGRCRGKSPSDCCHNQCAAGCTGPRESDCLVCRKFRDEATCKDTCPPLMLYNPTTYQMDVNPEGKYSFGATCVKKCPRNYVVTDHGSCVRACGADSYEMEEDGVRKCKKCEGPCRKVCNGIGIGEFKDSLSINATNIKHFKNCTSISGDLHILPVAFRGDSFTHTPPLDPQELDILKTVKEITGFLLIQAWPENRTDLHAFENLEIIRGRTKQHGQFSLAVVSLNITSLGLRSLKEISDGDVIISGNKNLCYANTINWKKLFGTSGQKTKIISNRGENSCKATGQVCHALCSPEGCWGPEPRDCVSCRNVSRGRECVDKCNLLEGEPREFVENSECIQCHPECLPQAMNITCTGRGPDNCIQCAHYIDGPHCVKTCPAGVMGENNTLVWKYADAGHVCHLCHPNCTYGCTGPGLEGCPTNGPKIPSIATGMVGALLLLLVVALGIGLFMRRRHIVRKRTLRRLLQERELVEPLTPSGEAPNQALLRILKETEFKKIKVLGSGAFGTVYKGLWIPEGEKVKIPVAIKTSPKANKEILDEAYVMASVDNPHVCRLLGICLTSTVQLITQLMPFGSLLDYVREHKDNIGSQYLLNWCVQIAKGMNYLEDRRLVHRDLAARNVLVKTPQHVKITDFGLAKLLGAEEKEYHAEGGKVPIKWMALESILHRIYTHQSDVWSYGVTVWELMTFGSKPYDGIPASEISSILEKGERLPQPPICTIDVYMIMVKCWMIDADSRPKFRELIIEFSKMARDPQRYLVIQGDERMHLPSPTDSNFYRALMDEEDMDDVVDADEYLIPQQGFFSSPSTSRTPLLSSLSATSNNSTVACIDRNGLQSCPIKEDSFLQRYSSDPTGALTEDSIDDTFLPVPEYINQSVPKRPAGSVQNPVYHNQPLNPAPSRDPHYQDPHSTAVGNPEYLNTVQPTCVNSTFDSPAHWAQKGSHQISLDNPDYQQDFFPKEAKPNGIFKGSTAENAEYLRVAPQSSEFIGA
Sequence of Ba/F3-EGFR-L858R cells (P00533 whole entry L858R): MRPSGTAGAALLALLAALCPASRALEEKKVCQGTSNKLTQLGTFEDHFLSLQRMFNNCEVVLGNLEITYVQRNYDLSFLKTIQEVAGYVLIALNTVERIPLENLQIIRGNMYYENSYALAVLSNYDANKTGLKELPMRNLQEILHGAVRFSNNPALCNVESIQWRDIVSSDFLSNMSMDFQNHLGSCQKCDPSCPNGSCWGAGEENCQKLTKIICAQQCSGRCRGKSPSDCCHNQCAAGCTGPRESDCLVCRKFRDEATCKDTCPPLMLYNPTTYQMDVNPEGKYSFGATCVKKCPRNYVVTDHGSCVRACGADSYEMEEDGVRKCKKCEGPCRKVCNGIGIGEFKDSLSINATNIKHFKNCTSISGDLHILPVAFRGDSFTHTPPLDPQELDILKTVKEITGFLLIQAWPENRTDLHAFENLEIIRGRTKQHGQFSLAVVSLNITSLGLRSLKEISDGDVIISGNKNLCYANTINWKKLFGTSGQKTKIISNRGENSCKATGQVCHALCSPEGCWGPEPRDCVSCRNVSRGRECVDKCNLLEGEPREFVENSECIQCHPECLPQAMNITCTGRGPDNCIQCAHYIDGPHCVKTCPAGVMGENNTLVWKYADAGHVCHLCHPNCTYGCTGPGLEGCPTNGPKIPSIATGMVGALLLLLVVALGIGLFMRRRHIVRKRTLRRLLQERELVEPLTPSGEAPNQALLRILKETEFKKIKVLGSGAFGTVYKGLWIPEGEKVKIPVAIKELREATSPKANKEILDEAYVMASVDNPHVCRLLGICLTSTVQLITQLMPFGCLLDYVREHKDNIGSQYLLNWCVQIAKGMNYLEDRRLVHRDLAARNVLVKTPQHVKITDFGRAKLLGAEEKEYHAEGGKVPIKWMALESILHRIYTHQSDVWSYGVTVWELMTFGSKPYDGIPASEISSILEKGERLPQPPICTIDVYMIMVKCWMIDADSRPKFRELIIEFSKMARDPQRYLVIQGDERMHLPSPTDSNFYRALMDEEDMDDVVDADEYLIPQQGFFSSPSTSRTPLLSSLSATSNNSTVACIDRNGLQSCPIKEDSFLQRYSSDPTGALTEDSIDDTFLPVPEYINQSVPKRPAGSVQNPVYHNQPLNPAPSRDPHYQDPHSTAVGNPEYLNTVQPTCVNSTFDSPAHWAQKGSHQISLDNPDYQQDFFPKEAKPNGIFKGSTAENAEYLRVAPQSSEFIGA
Sequence of Ba/F3-ERBB2-A775_G776insYVMA cells (P04626 with tags, fused parts or gaps DUP772-775): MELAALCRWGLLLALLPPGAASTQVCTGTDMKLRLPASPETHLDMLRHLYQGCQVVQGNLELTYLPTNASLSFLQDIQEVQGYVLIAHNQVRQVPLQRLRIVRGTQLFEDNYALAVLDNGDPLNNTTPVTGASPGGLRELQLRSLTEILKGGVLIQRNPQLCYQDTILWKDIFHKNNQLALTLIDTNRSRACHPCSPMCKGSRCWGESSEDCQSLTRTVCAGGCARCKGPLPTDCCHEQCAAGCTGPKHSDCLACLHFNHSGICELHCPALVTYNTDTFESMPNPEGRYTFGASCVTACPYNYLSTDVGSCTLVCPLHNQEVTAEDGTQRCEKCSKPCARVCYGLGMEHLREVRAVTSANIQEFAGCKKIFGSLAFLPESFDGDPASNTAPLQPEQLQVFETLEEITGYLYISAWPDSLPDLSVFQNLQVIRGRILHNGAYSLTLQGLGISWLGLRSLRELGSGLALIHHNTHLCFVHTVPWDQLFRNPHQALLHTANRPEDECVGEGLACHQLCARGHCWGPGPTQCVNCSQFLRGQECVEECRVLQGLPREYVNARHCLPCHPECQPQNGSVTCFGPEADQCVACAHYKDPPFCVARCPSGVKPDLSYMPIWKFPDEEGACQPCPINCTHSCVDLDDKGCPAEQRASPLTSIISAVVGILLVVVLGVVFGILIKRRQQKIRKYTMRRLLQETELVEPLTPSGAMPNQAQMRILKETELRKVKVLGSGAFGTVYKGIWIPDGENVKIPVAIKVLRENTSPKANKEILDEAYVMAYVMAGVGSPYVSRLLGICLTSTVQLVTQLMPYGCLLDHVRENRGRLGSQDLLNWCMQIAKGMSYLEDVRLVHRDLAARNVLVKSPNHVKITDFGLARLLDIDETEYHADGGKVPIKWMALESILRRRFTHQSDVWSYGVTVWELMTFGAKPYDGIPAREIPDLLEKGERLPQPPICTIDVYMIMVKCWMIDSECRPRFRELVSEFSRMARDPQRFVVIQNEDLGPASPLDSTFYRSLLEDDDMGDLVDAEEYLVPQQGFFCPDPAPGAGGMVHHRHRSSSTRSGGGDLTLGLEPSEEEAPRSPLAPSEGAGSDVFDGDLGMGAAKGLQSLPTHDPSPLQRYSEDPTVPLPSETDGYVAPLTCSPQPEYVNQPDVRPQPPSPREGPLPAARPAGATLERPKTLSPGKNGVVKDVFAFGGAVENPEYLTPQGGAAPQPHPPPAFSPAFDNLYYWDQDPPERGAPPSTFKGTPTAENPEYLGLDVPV
Sequence of Ba/F3-EGFR L861Q cells (P00533 whole entry L861Q): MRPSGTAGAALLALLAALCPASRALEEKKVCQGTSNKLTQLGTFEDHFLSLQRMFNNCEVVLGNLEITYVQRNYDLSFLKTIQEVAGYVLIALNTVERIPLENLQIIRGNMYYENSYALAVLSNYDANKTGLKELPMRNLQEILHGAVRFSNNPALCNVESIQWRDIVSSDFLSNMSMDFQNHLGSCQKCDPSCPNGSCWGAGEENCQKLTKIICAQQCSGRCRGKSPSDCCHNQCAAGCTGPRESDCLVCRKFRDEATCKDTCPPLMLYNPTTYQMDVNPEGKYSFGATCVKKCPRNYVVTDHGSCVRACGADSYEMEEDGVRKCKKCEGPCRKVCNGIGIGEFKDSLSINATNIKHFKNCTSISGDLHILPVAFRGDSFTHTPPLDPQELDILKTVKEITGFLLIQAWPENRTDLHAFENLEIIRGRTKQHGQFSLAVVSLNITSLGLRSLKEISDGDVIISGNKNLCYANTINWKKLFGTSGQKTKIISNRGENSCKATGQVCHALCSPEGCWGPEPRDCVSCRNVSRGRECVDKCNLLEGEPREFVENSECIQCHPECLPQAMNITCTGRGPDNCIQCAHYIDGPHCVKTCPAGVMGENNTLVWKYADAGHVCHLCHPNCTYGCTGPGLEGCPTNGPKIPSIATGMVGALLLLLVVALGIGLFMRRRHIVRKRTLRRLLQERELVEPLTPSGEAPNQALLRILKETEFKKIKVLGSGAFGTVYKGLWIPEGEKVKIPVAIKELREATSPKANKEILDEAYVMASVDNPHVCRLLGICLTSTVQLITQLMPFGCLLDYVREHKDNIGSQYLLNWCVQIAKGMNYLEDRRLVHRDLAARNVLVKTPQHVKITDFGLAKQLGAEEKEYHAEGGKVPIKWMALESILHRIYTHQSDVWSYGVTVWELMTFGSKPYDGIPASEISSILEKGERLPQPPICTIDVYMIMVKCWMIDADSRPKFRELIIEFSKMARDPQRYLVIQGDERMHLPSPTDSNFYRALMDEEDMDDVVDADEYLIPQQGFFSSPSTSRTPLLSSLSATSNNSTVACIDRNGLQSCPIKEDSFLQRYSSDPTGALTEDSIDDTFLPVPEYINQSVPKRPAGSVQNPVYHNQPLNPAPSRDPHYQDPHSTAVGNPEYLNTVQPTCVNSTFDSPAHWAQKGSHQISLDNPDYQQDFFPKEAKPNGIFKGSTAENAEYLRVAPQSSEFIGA

A word on the IC50: it is the concentration that inhibits the measured activity by half. A high value points to lower potency. Consider `COc1c(Cl)cccc1Nc1c(-c2ccncc2OC[C@@H]2COCCN2C)[nH]c2c1C(=O)NCC2` [Example 21, 3-(3-chloro-2-methoxyanilino)-2-(3-{[(3S)-4-methylmorpholin-3-yl]methoxy}pyridin-4-yl)-1,5,6,7-tetrahydro-4H-pyrrolo[3,2-c]pyridin-4-one], for which the GI50 in assay [1] was determined as 13.4 nM; in assay [2], 0.259 nM; in assay [3], 7.84 nM; in assay [4], 0.644 nM; in assay [6], 7.34 nM; in assay [8], 0.203 nM. Besides, the values for the IC50 in assay [5] and in assay [7] were < 3 nM and 1.16 nM, respectively.

For the compound `COc1c(F)cccc1Nc1c(-c2ccncc2OCC2CN(C)CCO2)[nH]c2c1C(=O)NCC2` (single isomer, unassigned) [Example 14, 3-(3-fluoro-2-methoxyanilino)-2-{3-[(4-methylmorpholin-2-yl)methoxy]pyridin-4-yl}-1,5,6,7-tetrahydro-4H-pyrrolo[3,2-c]pyridin-4-one], the GI50 in assay [1] amounted to 13.6 nM; in assay [2], 0.379 nM; in assay [3] it was 24.9 nM; in assay [4], 1.22 nM; in assay [6], 20.1 nM; in assay [8], 1.72 nM. Besides, the IC50 was < 3 nM in assay [5] and 2.12 nM in assay [7].

Values taken from US12679836B2, “4H-pyrrolo[3,2-c]pyridin-4-one compounds” (Bayer Aktiengesellschaft, priority 2019, dated 2026).
